Test results published in publication PMC8571951, “An activity‐based bioprobe differentiates a novel small molecule inhibitor from a LOXL2 antibody and provides renewed promise for anti‐fibrotic therapeutic strategies” (Clinical and Translational Medicine, 2021).

Key:
[1] = system: streptozotocin and high fat diet-induced model of NASH; assay: Streptozotocin and high fat diet-induced mouse model of NASH; type: in vivo
Experimental: PXS-5338 was evaluated in a 14-week mouse model of NASH (Takakura, Koido et al. 2014), dosing therapeutically at 10 mg/kg from weeks 8-12 and increasing to 30 mg/kg from weeks 12-14. […] Telmisartan served as a positive pharmacological control.

[2] = target: T1, native LOXL2 protein in human plasma (Homo sapiens, UniProt Q9Y4K0); assay: PXS-5878/Simoa platform, residual LOXL2 activity in human plasma; type: biochemical; conditions: human plasma incubated 30 min; read-out: IC50, inhibition of native LOXL2 in human plasma
T1 construct: from tissue; host or cells: human plasma (activity) and human serum (protein concentration) from clinical trial subjects
T1 sequence (Q9Y4K0 26-774): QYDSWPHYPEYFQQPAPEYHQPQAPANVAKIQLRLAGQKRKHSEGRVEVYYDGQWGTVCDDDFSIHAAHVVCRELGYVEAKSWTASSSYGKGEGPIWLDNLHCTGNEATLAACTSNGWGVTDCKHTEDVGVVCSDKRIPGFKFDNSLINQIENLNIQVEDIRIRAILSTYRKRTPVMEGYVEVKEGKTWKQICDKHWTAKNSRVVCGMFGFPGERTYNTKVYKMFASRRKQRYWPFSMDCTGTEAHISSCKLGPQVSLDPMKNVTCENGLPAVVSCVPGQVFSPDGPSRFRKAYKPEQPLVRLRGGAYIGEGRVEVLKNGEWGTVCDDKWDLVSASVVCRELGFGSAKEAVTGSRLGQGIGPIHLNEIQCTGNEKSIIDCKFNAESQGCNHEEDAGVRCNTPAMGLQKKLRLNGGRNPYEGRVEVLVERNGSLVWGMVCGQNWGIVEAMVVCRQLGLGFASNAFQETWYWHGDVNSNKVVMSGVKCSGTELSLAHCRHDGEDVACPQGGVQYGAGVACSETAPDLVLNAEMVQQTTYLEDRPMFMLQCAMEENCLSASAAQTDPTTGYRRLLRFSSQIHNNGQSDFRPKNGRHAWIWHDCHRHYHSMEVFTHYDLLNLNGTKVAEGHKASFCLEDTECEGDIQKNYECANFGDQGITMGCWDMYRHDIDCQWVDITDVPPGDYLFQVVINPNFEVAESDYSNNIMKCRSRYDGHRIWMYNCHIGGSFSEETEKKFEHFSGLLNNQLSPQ
Experimental: FIGURE 2 Characteristics of PXS‐5338 and inhibition of lysyl oxidase‐like 2 (LOXL2) enzymatic activity in vitro and in vivo. (A) Chemical structure of PXS‐5338. […] (B) Tissue levels of PXS‐5338 measured 1 and 4 h after a single oral dose of 30 mg/kg in the rat. […] Average data from three different animals. (C) Concentration‐dependent inhibition of native […] LOX and rh LOXL1‐4 in a standard Amplex Red assay with 30 min pre‐incubation; n ≥3 independent experiments, standard error of mean (SEM). (D) PXS‐5338 inhibits rh LOXL2 in a time‐dependent manner, with increasing potency observed upon longer incubation with the enzyme. LOXL2 activity data devised from Amplex Red assay using putrescine as substrate and varying pre‐incubation times; n ≥3 independent experiments, standard error of mean (SEM). […] AB0023 and the corresponding isotype control antibody GS834298 were kindly provided by Gilead. Concentration‐response curves for the pan‐LOX inhibitor BAPN and LOXL2‐selective inhibitor PXS‐5338 are included for comparison. Data represented as mean ± SD with n = 5/concentration. […] To enable translation of preclinical data into the clinic, human plasma was incubated with different concentrations of PXS‐5338 for 30 min and the PXS‐5878/Simoa® platform used to measure the residual activity. […]

[3] = 10 mg/kg weeks 8-12, 30 mg/kg weeks 12-14

CC(C)c1c(Cc2ccc(S(C)(=O)=O)nc2)c2ncccc2n1C/C(F)=C/CN [PXS-5338]
Collagen content (hydroxyproline) [1, 3]: significant reduction in collagen content
Fibrosis, fibrotic area (picrosirius red staining) [1, 3]: significantly attenuated fibrosis
Hepatocyte ballooning [1, 3]: reduction in hepatocyte ballooning
Immature and mature crosslinks (DHLNL and PYD) [1, 3]: reduction in immature and mature crosslinks
NASH scoring ([1]; 10 mg/kg weeks 8-12, 30 mg/kg weeks 12-14, vs NASH group): significantly decreased NASH scoring

CC(C)c1c(Cc2ccc(S(C)(=O)=O)nc2)c2ncccc2n1C/C(F)=C/CN [PXS‐5338]
IC50 [2]: 37 nM
